20 compounds from PubChem BioAssay AID248 (DTP/NCI, 2004) can be followed below.

Toxic doses and inconclusive results are not listed.

The test system of this assay is L1210 leukemia ip in BDF1 mice, survival T/C. In words: NCI In Vivo Anticancer Drug Screen. Data for tumor model L1210 Leukemia (intraperitoneal) in B6D2F1 (BDF1) mice. Particulars: endpoint: mean survival time, higher = longer survival. An outline of the steps: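 Transplantable tumor model; survival measured in treated vs vehicle control mice. Value = treated/control.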

The mark [1] stands for this setting: dose: 100.0 mg/kg/injection, schedule: Q01DX009 (ip), vehicle: Klucel (hydroxypropylcellulose) (HPC).
Setting [2] is: dose: 200.0 mg/kg/injection, schedule: Q01DX009 (ip), vehicle: Klucel (hydroxypropylcellulose) (HPC).
The mark [3] stands for this setting: dose: 100.0 mg/kg/injection, schedule: Q04DX002 (ip), vehicle: Klucel (hydroxypropylcellulose) (HPC).
The mark [4] stands for this setting: dose: 100.0 mg/kg/injection, schedule: Q01DX001 (ip), vehicle: saline.
Setting [5] is: dose: 200.0 mg/kg/injection, schedule: Q01DX001 (ip), vehicle: saline.
Setting [6] is: dose: 400.0 mg/kg/injection, schedule: Q01DX001 (ip), vehicle: saline.
The mark [7] stands for this setting: dose: 100.0 mg/kg/injection, schedule: Q01DX001 (ip), vehicle: carboxymethylcellulose (CMC).
[8] abbreviates: dose: 200.0 mg/kg/injection, schedule: Q01DX001 (ip), vehicle: carboxymethylcellulose (CMC).
The mark [9] stands for this setting: dose: 400.0 mg/kg/injection, schedule: Q01DX001 (ip), vehicle: carboxymethylcellulose (CMC).
Setting [10] is: dose: 100.0 mg/kg/injection, schedule: Q01DX009 (ip), vehicle: saline with Tween-80.
The mark [11] stands for this setting: dose: 200.0 mg/kg/injection, schedule: Q01DX009 (ip), vehicle: saline with Tween-80.
[12] abbreviates: dose: 200.0 mg/kg/injection, schedule: Q04DX002 (ip), vehicle: saline with Tween-80.

`O=C(O)CCC(=O)Nc1cc(C(F)(F)F)ccc1Cl`: the T/C was 102 % of control (dose: 100.0 mg/kg/injection, schedule: Q04DX002 (ip), vehicle: saline); 97 % of control (dose: 200.0 mg/kg/injection, schedule: Q04DX002 (ip), vehicle: saline); 108 % of control (dose: 400.0 mg/kg/injection, schedule: Q04DX002 (ip), vehicle: saline).

On to `O=C(Nc1ccc(F)cc1)Nc1cccc(C(F)(F)F)c1`, for which the T/C by setting is: (dose: 50.0 mg/kg/injection, schedule: Q01DX009 (ip), vehicle: Klucel (hydroxypropylcellulose) (HPC)) 103 % of control; under setting [1], 107 % of control; under setting [2], 92 % of control.

With `c1ccc(C2=C(c3ccccc3)CC2)cc1`, the T/C was 104 % of control (dose: 50.0 mg/kg/injection, schedule: Q01DX001 (ip), vehicle: Klucel (hydroxypropylcellulose) (HPC)); 98 % of control (dose: 100.0 mg/kg/injection, schedule: Q01DX001 (ip), vehicle: Klucel (hydroxypropylcellulose) (HPC)); 108 % of control (dose: 200.0 mg/kg/injection, schedule: Q01DX001 (ip), vehicle: Klucel (hydroxypropylcellulose) (HPC)).

As for `CCSC1(SCC)C2(CCCCC2)C(=O)C12CCCCC2`, the T/C reads like this: under setting [3], 93 % of control; (dose: 200.0 mg/kg/injection, schedule: Q04DX002 (ip), vehicle: Klucel (hydroxypropylcellulose) (HPC)) 96 % of control; (dose: 400.0 mg/kg/injection, schedule: Q04DX002 (ip), vehicle: Klucel (hydroxypropylcellulose) (HPC)) 96 % of control.

As for `O=C(NCCSSCCNC(=O)c1ccccc1)c1ccccc1`, the T/C is, setting by setting: under setting [4], 92 % of control; under setting [5], 96 % of control; under setting [6], 100 % of control.

For the compound `CNc1ncnc2[nH]ncc12`, the T/C is, setting by setting: (dose: 50.0 mg/kg/injection, schedule: Q01DX001 (ip), vehicle: carboxymethylcellulose (CMC)) 94 % of control; under setting [7], 88 % of control; under setting [8], 96 % of control; under setting [9], 103 % of control.

Turning to `Nc1ccccc1C(=O)N/N=C/c1ccccc1Cl`, the T/C under setting [1] was 102 % of control; the T/C under setting [2] is 97 % of control; the T/C (dose: 400.0 mg/kg/injection, schedule: Q01DX009 (ip), vehicle: Klucel (hydroxypropylcellulose) (HPC)) is 86 % of control.

As for `O=C(O)C1C(C(=O)O)C2(c3ccccc3)c3ccccc3C12` (centres undefined), the T/C (dose: 9.38 mg/kg/injection, schedule: Q01DX001 (ip), vehicle: other) was 92 % of control; the T/C (dose: 18.75 mg/kg/injection, schedule: Q01DX001 (ip), vehicle: other) is 92 % of control; the T/C (dose: 37.5 mg/kg/injection, schedule: Q01DX001 (ip), vehicle: other) is 102 % of control.

Regarding `ClCC1COC(c2ccccc2)O1` (centres undefined), the T/C is, setting by setting: (dose: 5.8 mg/kg/injection, schedule: Q01DX Z (ip), vehicle: methylcellulose (MC)) 112 % of control; (dose: 8.8 mg/kg/injection, schedule: Q01DX Z (ip), vehicle: methylcellulose (MC)) 102 % of control; (dose: 13.3 mg/kg/injection, schedule: Q01DX Z (ip), vehicle: methylcellulose (MC)) 115 % of control; (dose: 20.0 mg/kg/injection, schedule: Q01DX Z (ip), vehicle: methylcellulose (MC)) 97 % of control.

`Cc1ccc(CCCCCCCCCCCC(=O)O)cc1`: the T/C (dose: 50.0 mg/kg/injection, schedule: Q01DX009 (ip), vehicle: saline with Tween-80) was 93 % of control; the T/C under setting [10] was 97 % of control; the T/C under setting [11] is 93 % of control.

On to `O=C(O)c1ccc(NCCO)cc1`, for which the T/C was 102 % of control (dose: 75.0 mg/kg/injection, schedule: Q01DX009 (ip), vehicle: Klucel (hydroxypropylcellulose) (HPC)); 90 % of control (dose: 150.0 mg/kg/injection, schedule: Q01DX009 (ip), vehicle: Klucel (hydroxypropylcellulose) (HPC)); 90 % of control (dose: 300.0 mg/kg/injection, schedule: Q01DX009 (ip), vehicle: Klucel (hydroxypropylcellulose) (HPC)).

As to `O=C(C(=O)N1CC2OC2C1)N1CC2OC2C1` (centres undefined), the T/C runs as follows: (dose: 29.0 mg/kg/injection, schedule: Q04DX002 (ip), vehicle: saline with Tween-80) 95 % of control; (dose: 39.0 mg/kg/injection, schedule: Q01DX001 (ip), vehicle: saline with Tween-80) 98 % of control; (dose: 44.0 mg/kg/injection, schedule: Q04DX002 (ip), vehicle: saline with Tween-80) 100 % of control; (dose: 59.0 mg/kg/injection, schedule: Q01DX001 (ip), vehicle: saline with Tween-80) 102 % of control; (dose: 67.0 mg/kg/injection, schedule: Q04DX002 (ip), vehicle: saline with Tween-80) 100 % of control; (dose: 88.0 mg/kg/injection, schedule: Q01DX001 (ip), vehicle: saline with Tween-80) 97 % of control. The T/C is 97 % of control (dose: 133.0 mg/kg/injection, schedule: Q01DX001 (ip), vehicle: saline with Tween-80); 102 % of control (dose: 150.0 mg/kg/injection, schedule: Q04DX002 (ip), vehicle: saline with Tween-80); 97 % of control (dose: 200.0 mg/kg/injection, schedule: Q01DX001 (ip), vehicle: saline with Tween-80); 239 % of control under setting [12]; 105 % of control (dose: 225.0 mg/kg/injection, schedule: Q04DX002 (ip), vehicle: saline with Tween-80); 100 % of control (dose: 300.0 mg/kg/injection, schedule: Q01DX001 (ip), vehicle: saline with Tween-80).

As to `OCCCNc1nc2cc(Cl)ccc2c2ccc(Cl)cc12`, the T/C is 90 % of control under setting [1]; 88 % of control (dose: 100.0 mg/kg/injection, schedule: Q04DX003 (ip), vehicle: Klucel (hydroxypropylcellulose) (HPC)); 97 % of control (dose: 200.0 mg/kg/injection, schedule: Q04DX003 (ip), vehicle: Klucel (hydroxypropylcellulose) (HPC)); 103 % of control (dose: 400.0 mg/kg/injection, schedule: Q04DX003 (ip), vehicle: Klucel (hydroxypropylcellulose) (HPC)).

For `CCOC(=O)C(OCc1ccccc1)(C(=O)N1CCCCCC1=O)C(C)C` (centres undefined), the T/C is, setting by setting: under setting [10], 90 % of control; under setting [11], 90 % of control; (dose: 400.0 mg/kg/injection, schedule: Q01DX009 (ip), vehicle: saline with Tween-80) 100 % of control.

For `c1ccc(C(c2ccccc2)c2ccc(C(c3ccccc3)(c3ccccc3)c3ccccc3)cc2)cc1`, the T/C (dose: 87.5 mg/kg/injection, schedule: Q04DX003 (ip), vehicle: Klucel (hydroxypropylcellulose) (HPC)) is 88 % of control.

Take `O=C(O)c1cccc(SSc2cccc(C(=O)O)c2)c1`: the T/C runs as follows: under setting [7], 94 % of control; under setting [8], 100 % of control; under setting [9], 102 % of control.

For `O=C(O)c1cc(=O)c2ccc(Cl)cc2[nH]1`, the T/C under setting [4] was 90 % of control; the T/C (dose: 100.0 mg/kg/injection, schedule: Q04DX003 (ip), vehicle: other) was 88 % of control; the T/C under setting [5] is 98 % of control; the T/C (dose: 200.0 mg/kg/injection, schedule: Q04DX003 (ip), vehicle: other) was 91 % of control; the T/C under setting [6] is 102 % of control; the T/C (dose: 400.0 mg/kg/injection, schedule: Q04DX003 (ip), vehicle: other) is 98 % of control.

For `CC(=O)C(CCC#N)(CCC#N)c1ccccc1`, the T/C runs as follows: (dose: 50.0 mg/kg/injection, schedule: Q04DX002 (ip), vehicle: Klucel (hydroxypropylcellulose) (HPC)) 121 % of control; under setting [3], 101 % of control.

Regarding `c1ccc(-c2c(-c3ccccc3)c(-c3ccccc3)c(-c3ccccc3)c(-c3ccccc3)c2-c2ccccc2)cc1`, the T/C (dose: 25.0 mg/kg/injection, schedule: Q01DX009 (ip), vehicle: water) is 104 % of control; the T/C (dose: 50.0 mg/kg/injection, schedule: Q01DX009 (ip), vehicle: water) was 102 % of control; the T/C (dose: 100.0 mg/kg/injection, schedule: Q01DX009 (ip), vehicle: water) was 96 % of control; the T/C (dose: 200.0 mg/kg/injection, schedule: Q01DX009 (ip), vehicle: water) was 100 % of control; the T/C (dose: 400.0 mg/kg/injection, schedule: Q01DX009 (ip), vehicle: water) was 97 % of control.

In the case of `COC1OCC(Cl)C(O)C1OS(C)(=O)=O` (centres undefined), the T/C was 96 % of control (dose: 100.0 mg/kg/injection, schedule: Q04DX002 (ip), vehicle: saline with Tween-80); 100 % of control under setting [12]; 104 % of control (dose: 400.0 mg/kg/injection, schedule: Q04DX002 (ip), vehicle: saline with Tween-80).
